Some test systems named below: T-47D breast; KM12 colon; CCRF-CEM leukemia; DU-145 prostate; SK-MEL-5 melanoma; NCI/ADR-RES ovarian; UO-31 renal; PC-3 prostate; HOP-92 NSCLC; LOX IMVI melanoma; HS 578T breast; A498 renal; OVCAR-5 ovarian; EKVX NSCLC; HOP-62 NSCLC; M14 melanoma; SF-539 CNS.
What all share (assay): DTP human tumour cell line panel, 48 h

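Cultured in 96-well plates, cells were exposed to test compound for 48 hours across five concentrations. TGI denotes the concentration required for complete inhibition of growth.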

What is called TGI is the concentration giving total growth inhibition. On to `N#Cc1c(=O)c2ccccc2n2ccccc12`, for which the TGI with T-47D breast, in the assay with KM12 colon, with CCRF-CEM leukemia, in the assay on DU-145 prostate, in the assay on SK-MEL-5 melanoma and with NCI/ADR-RES ovarian was over 100 µM each time. In addition, the TGI in the assay on UO-31 renal, in the assay with PC-3 prostate, with HOP-92 NSCLC, in the assay on LOX IMVI melanoma, in the assay with HS 578T breast and in the assay on A498 renal was over 100 µM in each case.

As for `CCc1ccc2[nH]c(O)c(C3=Nc4ccccc4C3=O)c2c1`, the TGI in the assay on T-47D breast is 77.5 µM; in the assay with OVCAR-5 ovarian it was over 100 µM; with KM12 colon, over 100 µM; in the assay with CCRF-CEM leukemia, over 100 µM; in the assay on EKVX NSCLC it was 24.2 µM; with DU-145 prostate it was over 100 µM. The concentration for total growth inhibition (TGI) is 41.4 µM with HOP-62 NSCLC; 33.4 µM with SK-MEL-5 melanoma; over 100 µM in the assay with NCI/ADR-RES ovarian; 37.9 µM with UO-31 renal; 50.1 µM in the assay with PC-3 prostate; over 100 µM with HOP-92 NSCLC. The TGI was over 100 µM with M14 melanoma, over 100 µM in the assay on LOX IMVI melanoma, over 100 µM in the assay on HS 578T breast and 18.2 µM in the assay with A498 renal.

As for `N=c1oc2ccccc2cc1-c1nc2ccccc2[nH]1`, the concentration for total growth inhibition (TGI) in the assay with T-47D breast is over 100 µM; with OVCAR-5 ovarian, over 100 µM; with KM12 colon it was over 100 µM; in the assay on CCRF-CEM leukemia, over 100 µM; in the assay with EKVX NSCLC it was 41.1 µM; in the assay with DU-145 prostate, 35.7 µM. The TGI in the assay on HOP-62 NSCLC is over 100 µM; in the assay on SK-MEL-5 melanoma it was over 100 µM; in the assay with NCI/ADR-RES ovarian, 64.2 µM; with UO-31 renal, 24.8 µM; with PC-3 prostate, over 100 µM; in the assay with HOP-92 NSCLC it was 35.5 µM. The TGI in the assay on SF-539 CNS, in the assay with M14 melanoma, with LOX IMVI melanoma and in the assay on HS 578T breast was over 100 µM throughout.

Consider `O=C(Nc1cccc(F)c1)c1cc2ccc(O)cc2oc1=Nc1cccc(F)c1`, for which the TGI in the assay with T-47D breast was 42.2 µM; in the assay on OVCAR-5 ovarian, over 100 µM; with KM12 colon it was over 100 µM; in the assay with CCRF-CEM leukemia it was 6.72 µM; in the assay with EKVX NSCLC, 26.3 µM; in the assay with DU-145 prostate, over 100 µM. Moreover, the TGI in the assay on HOP-62 NSCLC is over 100 µM; with SK-MEL-5 melanoma, 14.7 µM; in the assay with NCI/ADR-RES ovarian, 74.5 µM; in the assay on UO-31 renal, over 100 µM; with PC-3 prostate it was over 100 µM; in the assay on SF-539 CNS, over 100 µM. For the same compound, the TGI in the assay on M14 melanoma is over 100 µM; in the assay with LOX IMVI melanoma it was 9.35 µM; in the assay on HS 578T breast, 50.8 µM; with A498 renal, over 100 µM.

As for `O=C1CCCC/C1=C\c1ccc([N+](=O)[O-])cc1`, the TGI in the assay on T-47D breast was 65.3 µM; with OVCAR-5 ovarian, over 100 µM; with KM12 colon it was 38.4 µM; in the assay on CCRF-CEM leukemia, 30.4 µM; with EKVX NSCLC it was over 100 µM; with DU-145 prostate it was over 100 µM. Moreover, the TGI with HOP-62 NSCLC is 29 µM; with SK-MEL-5 melanoma it was over 100 µM; in the assay with NCI/ADR-RES ovarian, 57.1 µM; in the assay with UO-31 renal, 36.3 µM; with PC-3 prostate it was 4.46 µM; in the assay with HOP-92 NSCLC, 52.1 µM. Besides, the TGI was determined as 43.3 µM in the assay on SF-539 CNS, 40.8 µM in the assay on M14 melanoma, 3.74 µM with LOX IMVI melanoma and 70.8 µM in the assay on HS 578T breast.

`CC1(C)OCC(C2OC3OC(C)(C)OC3C2c2ccccc2)O1` (centres undefined): the TGI in the assay with T-47D breast, in the assay with OVCAR-5 ovarian, with KM12 colon, in the assay on CCRF-CEM leukemia, with EKVX NSCLC and in the assay with DU-145 prostate was over 100 µM throughout. Moreover, the TGI in the assay on HOP-62 NSCLC was over 100 µM; in the assay on SK-MEL-5 melanoma, 33.2 µM; with NCI/ADR-RES ovarian, over 100 µM; in the assay with UO-31 renal, over 100 µM; in the assay with PC-3 prostate, 98.7 µM; with HOP-92 NSCLC, 79 µM. Also, the TGI with SF-539 CNS was over 100 µM; with M14 melanoma it was 93.9 µM; in the assay with LOX IMVI melanoma it was over 100 µM; in the assay on HS 578T breast, 64.4 µM.

In the case of `Cc1cccc2[nH]c3c(c(O)cc4[nH]c5cccc(C)c5c(=O)c43)c(=O)c12`, the TGI in the assay on T-47D breast, in the assay with OVCAR-5 ovarian, in the assay on KM12 colon, in the assay on CCRF-CEM leukemia, in the assay on EKVX NSCLC and in the assay on DU-145 prostate was over 10 µM in each case. The TGI with HOP-62 NSCLC, with SK-MEL-5 melanoma, with NCI/ADR-RES ovarian, in the assay with PC-3 prostate, with SF-539 CNS and in the assay on M14 melanoma was over 10 µM each time. The TGI in the assay on LOX IMVI melanoma, in the assay with HS 578T breast and in the assay with A498 renal was over 10 µM each time.

Turning to `Nc1nccc(NCC2(CO)CC(OCc3ccccc3)C2)n1` (centres undefined), the TGI in the assay with T-47D breast was 36.2 µM; in the assay on OVCAR-5 ovarian it was over 100 µM; in the assay with KM12 colon, over 100 µM; with CCRF-CEM leukemia it was over 100 µM; with EKVX NSCLC, over 100 µM; in the assay on DU-145 prostate, over 100 µM. The TGI with HOP-62 NSCLC, in the assay with SK-MEL-5 melanoma, with NCI/ADR-RES ovarian, in the assay with UO-31 renal, in the assay with PC-3 prostate and in the assay on HOP-92 NSCLC was over 100 µM each time. In addition, the TGI in the assay on SF-539 CNS, in the assay with LOX IMVI melanoma, in the assay with HS 578T breast and in the assay on A498 renal was over 100 µM in each case.

`CC(O)c1cc2c(s1)C(=O)c1c(C(C)O)csc1C2=O` (centres undefined): the TGI in the assay with T-47D breast came to 0.667 µM; with OVCAR-5 ovarian, 1.35 µM; in the assay with KM12 colon, 1.08 µM; in the assay with CCRF-CEM leukemia, 0.492 µM; with EKVX NSCLC, 1.13 µM; in the assay on DU-145 prostate, 0.242 µM. The concentration for total growth inhibition (TGI) came to 0.439 µM in the assay on HOP-62 NSCLC; 0.0716 µM with SK-MEL-5 melanoma; 0.593 µM with NCI/ADR-RES ovarian; 0.776 µM in the assay on UO-31 renal; 0.514 µM in the assay on PC-3 prostate; 0.762 µM in the assay on HOP-92 NSCLC. Moreover, the TGI in the assay on SF-539 CNS was determined as 0.449 µM; with LOX IMVI melanoma it was 1.53 µM; in the assay with HS 578T breast, 0.804 µM; in the assay with A498 renal it was 0.462 µM.
